Values quoted from earlier work as cited in US20050113452A1, “Composition and dosage form for sustained effect of levodopa” (priority 2003, published 2005).

Test system: Parkinson's disease patients
Settings: especially when the two drugs are delivered together, Camicioli et al. 2001

## COC(=O)C(c1ccccc1)C1CCCCN1 (stereo not shown) [Methylphenidate, methylphenidate]
  Motor effects when used with levodopa: severe dyskinesia
